Measurements: US6046190A, “Hydroxyethylamino sulphonamides useful as retroviral protease inhibitors” (G.D. Searle & Co., priority 1996, dated 2000)

target: T1, HIV protease (Human immunodeficiency virus type 1 group M subtype B, UniProt P04585); experiment: biochemical; type: biochemical; settings: not given
T1 construct: HIV protease is diluted in the assay buffer to a final enzyme concentration of 12.3 nanomolar, based on a molecular weight of 10,780
Method: The enzyme method is described below. […] The positive control is MVT-101 (Miller, M. et al, Science, 246, 1149 (1989)]. The assay conditions are as follows:
20 mM sodium phosphate, pH 6.4
The above described substrate is dissolved in DMSO, then diluted 10 fold in assay buffer. Final substrate concentration in the assay is 80 μM.
The final concentration of DMSO is 14% and the final concentration of glycerol is 18%. The test compound is dissolved in DMSO and diluted in DMSO to 10× the test concentration; 10 μl of the enzyme preparation is added, the materials mixed and then the mixture is incubated at ambient temperature for 15 minutes. The enzyme reaction is initiated by the addition of 40μl of substrate. The increase in fluorescence is monitored at 4 time points (0, 8, 16 and 24 minutes) at ambient temperature. Each assay is carried out in duplicate wells.

Row | SMILES | IC50 [nM]
1 | COc1ccc(S(=O)(=O)N(CC(C)C)C[C@@H](O)[C@H](Cc2ccccc2)NC(=O)C2CCc3ccccc3C2)cc1 (stereo partly drawn) [Table 5A Entry 4] | 10
2 | COc1ccc(S(=O)(=O)N(CC(C)C)C[C@@H](O)[C@H](Cc2ccccc2)NC(=O)c2ccc(C)cc2C)cc1 [Table 5A Entry 6] | 23
3 | COc1ccc(S(=O)(=O)N(CC(C)C)C[C@@H](O)[C@H](Cc2ccccc2)NC(=O)c2cccc(OC)c2)cc1 [Table 5A Entry 30] | 30

same assay, conditions: Table 19B; calculated IC50; enzyme 12.3 nanomolar, substrate 80 μM, pH 6.4

Row | SMILES | IC50 [nM]
4 | CC(C)CCN(C[C@@H](O)[C@H](Cc1ccccc1)NC(=O)C(NC(=O)CN(C)C)C(C)(C)C)S(=O)(=O)c1ccccc1 (stereo partly drawn) [Table 3 Entry 8] | 3
5 | COc1ccc(S(=O)(=O)N(CC(C)C)C[C@@H](O)[C@H](Cc2ccccc2)NC(=O)C(NC(=O)CN(C)C)C(C)(C)C)cc1 (stereo partly drawn) [Table 3 Entry 10] | 2.5
6 | CC(C)CCN(C[C@@H](O)[C@H](Cc1ccccc1)NC(=O)C(NC(=O)OCc1ccccc1)C(C)(C)C)S(C)(=O)=O (stereo partly drawn) [Table 3 Entry 1] | 81
7 | CNCC(=O)NC(C(=O)N[C@@H](Cc1ccccc1)[C@H](O)CN(CCC(C)C)S(=O)(=O)c1ccccc1)C(C)(C)C (stereo partly drawn) [Table 3 Entry 6] | 1.8

same assay, conditions: Table 20; calculated IC50; enzyme 12.3 nanomolar, substrate 80 μM, pH 6.4

Row | SMILES | IC50 [nM]
8 | COc1ccc(S(=O)(=O)N(CC(C)C)C[C@@H](O)[C@H](Cc2ccccc2)NC(=O)c2ccccc2OC)cc1 [Table 5A Entry 29] | 190
9 | COc1ccc(S(=O)(=O)N(CC(C)C)CC(O)C(Cc2ccccc2)NC(=O)c2ccccc2)cc1 (stereo not drawn) [Table 5A Entry 25] | 14
10 | COc1ccc(S(=O)(=O)N(CC(C)C)CC(O)C(Cc2ccccc2)NC(=O)c2ccncc2)cc1 (stereo not drawn) [Table 5A Entry 11] | 18
11 | COc1ccc(S(=O)(=O)N(CC(C)C)CC(O)C(Cc2ccccc2)NC(=O)c2ccccc2C(C)C)cc1 (stereo not drawn) [Table 5A Entry 14] | 49
12 | COc1ccc(S(=O)(=O)N(CC(C)C)CC(O)C(Cc2ccccc2)NC(=O)c2ccccc2Cl)cc1 (stereo not drawn) [Table 5A Entry 12] | 6
13 | COc1ccc(S(=O)(=O)N(CC(C)C)CC(O)C(Cc2ccccc2)NC(=O)c2cccnc2)cc1 (stereo not drawn) [Table 5A Entry 9] | 67
14 | COc1ccc(S(=O)(=O)N(CC(C)C)CC(O)C(Cc2ccccc2)NC(=O)c2ccc(C)cc2)cc1 (stereo not drawn) [Table 5A Entry 28] | 15

same assay, conditions: Table 21; above-described enzyme assay

Row | SMILES | IC50 [nM]
15 | COc1ccc(S(=O)(=O)N(CC(C)C)C[C@@H](O)[C@H](Cc2ccccc2)NC(=O)c2cc(N)ccc2C)cc1 [Example 54] | 10
16 | COc1ccc(S(=O)(=O)N(CC(C)C)C[C@@H](O)[C@H](Cc2ccccc2)NC(=O)c2ccc(N(C)C)cc2C)cc1 [Example 52] | > 100
17 | COc1ccc(S(=O)(=O)N(CC(C)C)C[C@@H](O)[C@H](Cc2ccccc2)NC(=O)c2ccc(N)cc2C)cc1 [Example 51] | 9
18 | COc1ccc(S(=O)(=O)N(CC(C)C)C[C@@H](O)[C@H](Cc2ccccc2)NC(=O)c2cccc(O)c2C)cc1 [Example 59] | 3
19 | COc1ccc(S(=O)(=O)N(CC(C)C)C[C@@H](O)[C@H](Cc2ccccc2)NC(=O)c2cccc(N)c2C)cc1 [Example 49] | 6

test system: HIV-1 in CEM cells; experiment: HIV inhibition assay of acutely infected CEM cells (tetrazolium/MTT colorimetric), antiviral efficacy; type: cell-based; settings: Human immunodeficiency virus 1, CCRF-CEM, 168 h
Text: (§1) Methods, 20, 309-321 (1988).
(§2) [table 42: the next 8 blocks are its lines as printed, fixed-width]

Row | SMILES | EC50 [nM]
20 | COCCCN(C[C@@H](O)[C@H](Cc1ccccc1)NC(=O)OCc1ccccc1)S(=O)(=O)c1ccccc1 [Example 9] | 398
21 | COc1ccc(S(=O)(=O)N(CC(C)C)C[C@@H](O)[C@H](Cc2ccccc2)NC(=O)OCc2cccnc2)cc1 [Example 17] | 5
22 | COc1ccc(S(=O)(=O)N(CC(C)C)C[C@@H](O)[C@H](Cc2ccccc2)NC(=O)OCc2ccc[n+]([O-])c2)cc1 [Example 25] | 120
23 | COc1ccc(S(=O)(=O)N(CC(C)C)C[C@@H](O)[C@H](Cc2ccccc2)NC(=O)OC(C)(C)C)cc1 [Example 27] | 177
24 | CCC(C)[C@H](NC(=O)CNC)C(=O)N[C@@H](Cc1ccccc1)[C@H](O)CN(CCC(C)C)S(=O)(=O)c1ccccc1 (stereo partly drawn) [Example 15] | 38
25 | CC(C)CN(C[C@@H](O)[C@H](Cc1ccccc1)NC(=O)O[C@H]1CCOC1)S(=O)(=O)c1ccc(O)cc1 [Example 45] | 5
26 | CC(C)CCN(C[C@@H](O)[C@H](Cc1ccccc1)NC(=O)OCc1ccccc1)S(=O)(=O)c1ccccc1 [Example 1] | 55
27 | COc1ccc(S(=O)(=O)N(CC(C)C)C[C@@H](O)[C@H](Cc2ccccc2)NC(=O)c2ccncc2)cc1 [Example 33] | 68
28 | CC(C)CN(C[C@@H](O)[C@H](Cc1ccccc1)NC(=O)OCc1cccnc1)S(=O)(=O)c1ccc2c(c1)OCO2 [Example 69] | 68
29 | CC(C)CN(C[C@@H](O)[C@H](Cc1ccccc1)NC(=O)OCc1cncnc1)S(=O)(=O)c1ccc(O)cc1 [Example 41] | 11
30 | COc1ccc(S(=O)(=O)N(CC(C)C)C[C@@H](O)[C@H](Cc2ccccc2)NC(=O)c2cccnc2)cc1 [Example 34] | 188
31 | CCC(C)[C@H](NC(=O)CN(C)C)C(=O)N[C@@H](Cc1ccccc1)[C@H](O)CN(CC(C)C)S(=O)(=O)c1ccc(OC)cc1 (stereo partly drawn) [Example 13] | < 16
32 | CC(C)CN(C[C@@H](O)[C@H](Cc1ccccc1)NC(=O)OCc1cccnc1)S(=O)(=O)c1ccc(Cl)cc1 [Example 18] | 154

same assay, conditions: Human immunodeficiency virus 1, CCRF-CEM, 168 h; Table 21; CEM cells, 1000 TCID50 HIV-1, 7 days; read-out: EC50

Row | SMILES | EC50 [nM]
33 | CC(C)CN(C[C@@H](O)[C@H](Cc1ccccc1)NC(=O)OCc1cncs1)S(=O)(=O)c1ccc2c(c1)OCO2 [Example 70] | 30
34 | CC(C)CN(C[C@@H](O)[C@H](Cc1ccccc1)NC(=O)OCc1ccoc1)S(=O)(=O)c1ccc(N)cc1 [Example 60] | 60
35 | CC(C)CCN(C[C@@H](O)[C@H](Cc1ccccc1)NC(=O)[C@H](CC(N)=O)NC(=O)c1ccc2ccccc2n1)S(=O)(=O)c1ccccc1 [Example 2] | 5
36 | COc1ccc(S(=O)(=O)N(CC(C)C)C[C@@H](O)[C@H](Cc2ccccc2)NC(=O)OCc2ccc(N)nc2)cc1 [Example 38] | 1100
37 | COc1ccc(S(=O)(=O)N(CC(C)C)C[C@@H](O)[C@H](Cc2ccccc2)NC(=O)OCc2cncs2)cc1 [Example 56] | 40
38 | CC(C)CN(C[C@@H](O)[C@H](Cc1ccccc1)NC(=O)O[C@H]1CCS(=O)(=O)C1)S(=O)(=O)c1ccc(O)cc1 [Example 43] | 63
39 | COc1ccc(S(=O)(=O)N(CC(C)C)C[C@@H](O)[C@H](Cc2ccccc2)NC(=O)c2cccc(N(C)C)c2C)cc1 [Example 36] | 898
40 | COc1ccc(S(=O)(=O)N(CC(C)C)C[C@@H](O)[C@H](Cc2ccccc2)NC(=O)c2ccc(N)cc2C)cc1 [Example 51] | < 20
41 | CC(C)CN(C[C@@H](O)[C@H](Cc1ccccc1)NC(=O)OCc1cncs1)S(=O)(=O)c1ccc(O)cc1 [Example 57] | < 20
42 | COc1ccc(S(=O)(=O)N(CC(C)C)C[C@@H](O)[C@H](Cc2ccccc2)NC(=O)c2cccc(O)c2C)cc1 [Example 59] | 22
43 | COc1ccc(S(=O)(=O)N(CC(C)C)C[C@@H](O)[C@H](Cc2ccccc2)NC(=O)c2cccc(N)c2C)cc1 [Example 49] | < 20
44 | COc1ccc(S(=O)(=O)N(CC(C)C)C[C@@H](O)[C@H](Cc2ccccc2)NC(=O)O[C@H]2CCOC2)cc1 [Example 44] | 8
45 | CC(C)CN(C[C@@H](O)[C@H](Cc1ccccc1)NC(=O)OCc1cccnc1)S(=O)(=O)c1ccc(O)cc1 [Example 20] | 13
46 | COc1ccc(S(=O)(=O)N(CC(C)C)C[C@@H](O)[C@H](Cc2ccccc2)NC(=O)OCc2cncnc2)cc1 [Example 23] | 8
47 | COc1ccc(S(=O)(=O)N(CC(C)C)C[C@@H](O)[C@H](Cc2ccccc2)NC(=O)OCc2ccc(O)nc2)cc1 [Example 39] | 269
48 | CC(C)CN(C[C@@H](O)[C@H](Cc1ccccc1)NC(=O)O[C@H]1CCSC1)S(=O)(=O)c1ccc(O)cc1 [Example 42] | < 20
49 | Cc1c(O)cccc1C(=O)N[C@@H](Cc1ccccc1)[C@H](O)CN(CC(C)C)S(=O)(=O)c1ccc2c(c1)OCO2 [Example 73] | 22
50 | CC(C)CN(C[C@@H](O)[C@H](Cc1ccccc1)NC(=O)OCc1cccnc1)S(=O)(=O)c1ccc([N+](=O)[O-])cc1 [Example 19] | 377
51 | Cc1ccccc1C(=O)N[C@@H](Cc1ccccc1)[C@H](O)CN(CC(C)C)S(=O)(=O)c1ccc(O)cc1 [Example 37] | < 20
52 | COc1ccc(S(=O)(=O)N(CC(C)C)C[C@@H](O)[C@H](Cc2ccccc2)NC(=O)O[C@H]2CCSC2)cc1 [Example 46] | < 20
53 | COc1ccc(S(=O)(=O)N(CC(C)C)C[C@@H](O)[C@H](Cc2ccccc2)NC(=O)c2cccc([N+](=O)[O-])c2C)cc1 [Example 48] | 210
54 | COc1ccc(S(=O)(=O)N(CC(C)C)C[C@@H](O)[C@H](Cc2ccccc2)NC(=O)OCc2ccoc2)cc1 [Example 58] | 70

test system: not listed separately; experiment: Intrinsic toxicity of test compound in uninfected CEM cells (MTT); settings: human
Text: as §1, §2

Row | SMILES | CC50 at 168 h [nM]
55 | COCCCN(C[C@@H](O)[C@H](Cc1ccccc1)NC(=O)OCc1ccccc1)S(=O)(=O)c1ccccc1 [Example 9] | 15
56 | CC(C)CCN(C[C@@H](O)[C@H](Cc1ccccc1)NC(=O)[C@H](CC(N)=O)NC(=O)c1ccc2ccccc2n1)S(=O)(=O)c1ccccc1 [Example 2] | 203
57 | COc1ccc(S(=O)(=O)N(CC(C)C)C[C@@H](O)[C@H](Cc2ccccc2)NC(=O)OCc2cccnc2)cc1 [Example 17] | 59000
58 | COc1ccc(S(=O)(=O)N(CC(C)C)C[C@@H](O)[C@H](Cc2ccccc2)NC(=O)OCc2ccc[n+]([O-])c2)cc1 [Example 25] | 167000
59 | CC(C)CCN(C[C@@H](O)[C@H](Cc1ccccc1)NC(=O)OCc1ccccc1)S(=O)(=O)c1ccccc1 [Example 1] | 27

same assay, conditions: human, cem cells

Row | SMILES | CC50 at 168 h [nM]
60 | COc1ccc(S(=O)(=O)N(CC(C)C)C[C@@H](O)[C@H](Cc2ccccc2)NC(=O)OC(C)(C)C)cc1 [Example 27] | 300000
